Assay results published in patent US12065435B2, “Compounds for the treatment of glycogen storage disorders” (HADASIT MEDICAL RESEARCH SERVICES AND DEVELOPMENT LTD., priority 2017, dated 2024).

How the values were obtained:
[1] = target: T1, recombinant human GS1 (Homo sapiens, UniProt P13807); experiment: In vitro GS activity assay; format: biochemical; settings: 50 μM; unpaired t-tests, p<0.05
T1 sequence (P13807 1-737): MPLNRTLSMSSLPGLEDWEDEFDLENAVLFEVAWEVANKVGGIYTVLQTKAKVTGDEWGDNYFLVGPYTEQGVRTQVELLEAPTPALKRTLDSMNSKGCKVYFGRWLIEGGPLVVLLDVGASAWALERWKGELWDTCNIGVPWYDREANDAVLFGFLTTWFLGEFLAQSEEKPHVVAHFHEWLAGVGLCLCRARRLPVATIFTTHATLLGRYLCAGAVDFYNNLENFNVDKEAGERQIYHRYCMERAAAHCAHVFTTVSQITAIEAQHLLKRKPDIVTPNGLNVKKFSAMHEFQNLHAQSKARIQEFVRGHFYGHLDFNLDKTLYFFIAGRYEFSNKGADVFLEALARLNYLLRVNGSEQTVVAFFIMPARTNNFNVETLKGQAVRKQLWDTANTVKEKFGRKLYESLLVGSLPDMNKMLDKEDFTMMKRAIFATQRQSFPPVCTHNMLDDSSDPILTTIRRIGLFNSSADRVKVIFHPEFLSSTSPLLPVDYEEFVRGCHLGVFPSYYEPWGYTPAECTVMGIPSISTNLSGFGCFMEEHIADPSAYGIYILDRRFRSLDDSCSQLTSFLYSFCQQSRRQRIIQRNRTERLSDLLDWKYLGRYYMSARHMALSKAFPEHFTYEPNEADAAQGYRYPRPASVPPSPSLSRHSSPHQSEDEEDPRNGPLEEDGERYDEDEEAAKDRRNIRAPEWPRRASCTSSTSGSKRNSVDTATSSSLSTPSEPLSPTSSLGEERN
Procedure: The reaction was carried out in 96-well plates containing 50 μl of reaction volume (50 mM Tris, pH8, 20 mM EDTA, 25 mM KF, 2 mg/ml glycogen, 10 mM Glucose-6-Phosphate, 1.65 mM UDP[14C]glucose and 100 mM UDP-glucose). To test the inhibitory effect of the hits, each one was included in the reaction at a final concentration of 50 μM. The reaction was initiated with the addition of 20 nM recombinant human GS1, followed by incubation at 37° C. for 30 min. The reaction was then stopped with the addition of 100 μl cold 100% ethanol, and the total suspension was transferred into a 96-well filter plate. Vacuum was applied to remove the ethanol. Five washing steps with 150 μl of cold 66% ethanol then fully removed any non-incorporated UDP[14C]glucose, while the labelled glycogen stayed on the well filters. The plate was dried at 37° C. incubator for 30 min. 50 μl of scintillation fluid was added to each well and the plate was read for 14C signal on Microplate scintillation and luminescence counter Top Count (Perkin Elmer).

[2] = system: APBD modeling mice (Gbe^Y329S/Y329S mouse model); experiment: Motor parameters in APBD modeling mice; format: in vivo
Procedure: This study was conducted in compounds A and B according to the schemes described in Tables 8 and 9, respectively.
As vehicle control, 0.1% DMSO was used. It is noteworthy that, in order to have a statistically significant number of animals, compound A was tested in male mice and compound B in female mice (no mixed cages were allowed).
APBD is an autosomal disease with no gender related symptoms and it was presumed that this experimental design is optimal. The mode of delivery of the compounds was intravenous (IV) injection for the first month, followed by subcutaneous injection due to lack of injection space and scaring in animal tails.
Tables 8 and 9 describe the study design for compounds A and B. both compounds were tested at the age of 4 months, two months prior to disease onset, in order to assess possible prophylactic effects, and at the age of 6 months, at disease onset, in order to assess corrective effects.
The effect of compounds A and B on various motor parameters was tested every two weeks. The results are shown in herein.
The point of reference is one time point prior to treatment initiation. Please note, since animals first treated with the compounds at 6 months of age were not injected at all before that age, they could not have been compared to animals pre-injected with vehicle. Therefore, the duration of the longitudinal studies for the cohorts first treated at the age of 6 months is shorter than that of the animals first treated at 4 months of age.

[3] = system: polyglucosan body (PB) in APBD patient-derived fibroblasts; experiment: High content (image-based) PAS screening assay for polyglucosan bodies; format: cell-based, human; settings: 0, 1, 5, 10 and 50 μM
Procedure: All the steps of the assay were performed automatically using a Freedom Evo 150 liquid handling robot (Tecan). APBD patient-derived fibroblasts were seeded at a density of 800 cells/well in DMEM (Gibco) supplemented with 1 mM sodium pyruvate (Gibco), 1% antibiotics (Biological Industries, Israel) and 5% fetal bovine serum (Hyclone) into 384 well microclear plates (Greiner). The plates were transferred by the robotic arm (RoMa) into an automated incubator (Liconic), integrated with the robotic system, where they were incubated at 37° C. with 5% CO2. Following 24 h incubation, the medium was replaced by the robot using medium supplemented with 10 μM of each screened compound (0.1% DMSO final concentration, all prepared by the robot). The screened compounds were part of the Diverset CL collection purchased from ChemBridge (10,084 out of 50,000 molecules).
Next, these cells were cultured for another 24 h in the automated incubator, and, using the robot, washed them with PBS (Biological Industries, Israel), the cells were fixed with 4% paraformaldehyde (PFA), washed again with PBS, neutralized the previously added PFA by ammonium chloride (Sigma Aldrich), washed with PBS, permeabilized with 0.1% Triton X-100 (Sigma Aldrich), and washed again with PBS.
Following this, a robot was used to treat the fixed cells with 0.5 g/dl diastase (or amylase, Sigma Aldrich) for 5 minutes at 37° C. in the automated incubator, wash with PBS, stained with PAS (Merck), Hoechst 33342 (Sigma Aldrich) and Cell Mask Deep Red (Molecular Probes) and wash with PBS. Images of stained cells were then acquired by the IN Cell Analyzer 2000 (GE Healthcare) and analyzed using the IN Cell Investigator (GE Healthcare) applying an algorithm that quantified the PAS signal within each Cell Mask stained cell.
Images were segmented based on the Cell Mask signal which was linked with the segmentation of the nuclei, employing an empirically established sensitivity and kernel size for allowing the best segmentation. Once these nucleus-cytoplasm complex objects were selected, the software calculated the number of these objects (cell number) as well as the intensity of the PAS signal within each of them. All the assay parameters (including the acquisition exposure times, objective, and the analysis parameters) were kept constant throughout the whole screening campaign for allowing comparison of signals obtained from different batches of assay within the campaign.
The assay was performed as mentioned above, but with compound concentrations of 1, 5, 10, and 50 μM, instead of a constant concentration of 10 μM.
The discarded data was presumably associated with cells affected by toxic compounds. In the remaining data, the measured population mean PB intensity was normalized. Based on a series of images used for training, compounds were considered as positive only where following treatment the normalized PB mean intensity was at least under −1.2 z-score of the scale. Following this approach, 85 potential hits out of the 10,084 screened compounds were selected (0.84%).

[4] = treated from 4 months of age (2 months before onset), two way ANOVA with repeated measures
[5] = treated from 4 months of age, Bonferroni's multiple comparisons test
[6] = treated from 6 months of age (at onset), two way ANOVA with repeated measures
[7] = treated from 6 months of age, Bonferroni's multiple comparisons test

COCc1c(C(=O)N2[C@@H]3CC[C@H]2CN(C)C(=O)C3)noc1C (relative stereo) [UDP #19, (1S*,6R*)-9-{[4-(methoxymethyl)-5-methylisoxazol-3-yl]carbonyl}-3-methyl-3,9-diazabicyclo[4.2.1]nonan-4-one]
effect on GS activity (direction of change) [1]: increasing | apathy, mobility and responsiveness to experimenter ([2]; 250 mg/kg, IV first month then subcutaneous): less apathic, more mobile and more responsive to intervention by the experimenter | ameliorating effect on motor parameters (summary) ([2]; 250 mg/kg, IV first month then subcutaneous, tested every two weeks): ameliorate grip strength | average duration in movement in an open field test vs vehicle [2, 4]: not different from vehicle (p<0.1) | average front paw grip strength vs vehicle [2, 4]: different from vehicle with p<0.055 | average gait length vs vehicle [2, 4]: not different from vehicle (p<0.1) | average gait width vs vehicle [2, 4]: not different from vehicle (p<0.1) | average latency to fall off a metal wire vs vehicle [2, 4]: not different from vehicle (p<0.1) | average latency to fall off a rotating cylinder (rotarod) vs vehicle [2, 4]: the latency to fall was shorter in treated animals (p<0.089) | average regularity of step distance (Coefficient of Variance of all R-R and L-L step distances) vs vehicle [2, 4]: not different from vehicle (p<0.1) | average uniformity of step alternation (|0.5-(R-L/R-R)|) vs vehicle [2, 4]: not different from vehicle (p<0.1) | extension reflex vs vehicle [2, 4]: not different from vehicle (p<0.1) | average duration in movement in an open field test vs vehicle [2, 5]: no significant difference | average front paw grip strength vs vehicle [2, 5]: no significant difference | average gait length vs vehicle [2, 5]: no significant difference | average gait width vs vehicle [2, 5]: no significant difference | average latency to fall off a metal wire vs vehicle [2, 5]: no significant difference | average latency to fall off a rotating cylinder (rotarod) vs vehicle [2, 5]: 57 days after treatment initiation latency to fall was lower in treated mice as compared to vehicle control (p<0.05) | average regularity of step distance vs vehicle [2, 5]: no significant difference | average uniformity of step alternation vs vehicle [2, 5]: no significant difference | extension reflex vs vehicle [2, 5]: no significant difference | average duration in movement in an open field test vs vehicle [2, 6]: not different from vehicle (p<0.1) | average front paw grip strength vs vehicle [2, 6]: different from vehicle with p<0.1 | average gait length vs vehicle [2, 6]: not different from vehicle (p<0.1) | average gait width vs vehicle [2, 6]: not different from vehicle (p<0.1) | average latency to fall off a metal wire vs vehicle [2, 6]: not different from vehicle (p<0.1) | average latency to fall off a rotating cylinder (rotarod) vs vehicle [2, 6]: the latency to fall was shorter in treated animals (p<0.089) | average regularity of step distance vs vehicle [2, 6]: not different from vehicle (p<0.1) | average uniformity of step alternation (|0.5-(R-L/R-R)|) vs vehicle [2, 6]: not different from vehicle (p<0.1) | extension reflex vs vehicle [2, 6]: not different from vehicle (p<0.1) | average duration in movement in an open field test vs vehicle [2, 7]: no significant difference | average front paw grip strength vs vehicle [2, 7]: no significant difference | average gait length vs vehicle [2, 7]: no significant difference | average gait width vs vehicle [2, 7]: no significant difference | average latency to fall off a metal wire vs vehicle [2, 7]: no significant difference | average latency to fall off a rotating cylinder (rotarod) vs vehicle [2, 7]: no significant difference | average regularity of step distance vs vehicle [2, 7]: no significant difference | average uniformity of step alternation vs vehicle [2, 7]: a significant difference (p<0.05) between vehicle and treatment at 53 days after treatment initiation | extension reflex vs vehicle [2, 7]: no significant difference | dose response of diastase resistant cell associated mean PAS intensity normalized by z-score [3]: concentration dependent
